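Compound exposure: 48 hours, 5 concentrations, 96-well plates. Abbreviation: GI50, concentration required for 50% inhibition of growth.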 The source made the active and inactive calls. No stated cut-off is given here; in the data, active = GI50 up to about 1.1 µM and inactive = higher.
What was measured:
Assay in all cases: NCI-60 cell line screen, 48 h
NCI-H23 = system: NCI-H23
TK-10 = system: TK-10
Hs-578T = system: Hs-578T
MDA-MB-435 = system: MDA-MB-435
MDA-MB-231 = system: MDA-MB-231
NCI/ADR-RES = system: NCI/ADR-RES
SNB-75 = system: SNB-75
NCI-H460 = system: NCI-H460
SK-MEL-5 = system: SK-MEL-5
UO-31 = system: UO-31
HL-60 = system: HL-60
NCI-H226 = system: NCI-H226
LOX IMVI = system: LOX IMVI
SR = system: SR
SF-295 = system: SF-295
HT-29 = system: HT-29
CCRF-CEM = system: CCRF-CEM
786-0 = system: 786-0
HOP-62 = system: HOP-62
UACC-62 = system: UACC-62

Row | Structure (SMILES) | GI50 (NCI-H23) | GI50 (TK-10) | GI50 (Hs-578T) | GI50 (MDA-MB-435) | GI50 (MDA-MB-231) | GI50 (NCI/ADR-RES) | GI50 (SNB-75) | GI50 (NCI-H460) | GI50 (SK-MEL-5) | GI50 (UO-31) | GI50 (HL-60) | GI50 (NCI-H226) | GI50 (LOX IMVI) | GI50 (SR) | GI50 (SF-295) | GI50 (HT-29) | GI50 (CCRF-CEM) | GI50 (786-0) | GI50 (HOP-62) | GI50 (UACC-62)
1 | COCCNC1CCC2(SCCS2)c2[nH]c3ccccc3c21 (stereo unspecified) | > 100 µM (inactive) | 22.5 µM (inactive) | 57.9 µM (inactive) | 22.4 µM (inactive) | 20.3 µM (inactive) | 37.5 µM (inactive) | 90.8 µM (inactive) | 67.8 µM (inactive) | 25.1 µM (inactive) | > 10 µM (inactive) | 18.9 µM (inactive) | 40.3 µM (inactive) | 16.5 µM (inactive) | 23.1 µM (inactive) | 50.4 µM (inactive) | > 100 µM (inactive) | 35.2 µM (inactive) | 31.8 µM (inactive) | 86.7 µM (inactive) | –
2 | CC(=O)c1ccc2c3c1[C@@H]1O[C@@H]1c1cccc(c1-3)[C@@H]1O[C@H]21 | 7 µM (inactive) | 20.7 µM (inactive) | 14.9 µM (inactive) | 6.92 µM (inactive) | 17.7 µM (inactive) | 13.7 µM (inactive) | 13.5 µM (inactive) | – | 11.7 µM (inactive) | 6.84 µM (inactive) | 9.91 µM (inactive) | 37.8 µM (inactive) | 2.07 µM (inactive) | > 100 µM (inactive) | 15 µM (inactive) | 5.55 µM (inactive) | 2.86 µM (inactive) | 5.6 µM (inactive) | 13.7 µM (inactive) | 14 µM (inactive)
3 | Oc1ccc(/C=C/c2cccc(/C=C/c3ccc(O)c(O)c3)n2)cc1O | – | 11.4 µM (inactive) | 54.5 µM (inactive) | 10.7 µM (inactive) | 25.5 µM (inactive) | 5.48 µM (inactive) | 6.01 µM (inactive) | 5.57 µM (inactive) | 4.72 µM (inactive) | 3.85 µM (inactive) | 2.82 µM (inactive) | – | 5.14 µM (inactive) | 3.49 µM (inactive) | 18.6 µM (inactive) | 10.8 µM (inactive) | 2.75 µM (inactive) | 10.7 µM (inactive) | 22.2 µM (inactive) | 6.12 µM (inactive)
4 | COc1ccc(-n2c(N)c(C#N)c(C#N)c2-c2ccccc2)cc1 | > 100 µM (inactive) | > 100 µM (inactive) | 6.58 µM (inactive) | > 100 µM (inactive) | > 100 µM (inactive) | > 100 µM (inactive) | 2.74 µM (inactive) | – | 51.6 µM (inactive) | > 100 µM (inactive) | > 100 µM (inactive) | 13.8 µM (inactive) | > 100 µM (inactive) | > 100 µM (inactive) | 31.8 µM (inactive) | > 100 µM (inactive) | > 100 µM (inactive) | 45.3 µM (inactive) | 87.7 µM (inactive) | 10.7 µM (inactive)
5 | N#Cc1ccc(C2NN=CC23C(=O)c2ccccc2OC3c2ccccc2)cc1 (stereo unspecified) | 30.1 µM (inactive) | 25.4 µM (inactive) | 30.5 µM (inactive) | 30.8 µM (inactive) | 57.4 µM (inactive) | 31.5 µM (inactive) | – | 27.4 µM (inactive) | 23.7 µM (inactive) | 19.2 µM (inactive) | 59.7 µM (inactive) | 39.4 µM (inactive) | 30.9 µM (inactive) | 24 µM (inactive) | 34.4 µM (inactive) | 31.7 µM (inactive) | 32.6 µM (inactive) | 32.1 µM (inactive) | 54.6 µM (inactive) | 26.7 µM (inactive)
6 | Cc1ccc(S(=O)(=O)NNC(C[N+](=O)[O-])c2ccccc2)cc1 (stereo unspecified) | 43 µM (inactive) | 24.2 µM (inactive) | 44.4 µM (inactive) | 2.91 µM (inactive) | 28.4 µM (inactive) | 54.6 µM (inactive) | 22.7 µM (inactive) | 17.9 µM (inactive) | 19.4 µM (inactive) | 22.3 µM (inactive) | 3.71 µM (inactive) | 26.3 µM (inactive) | 3.64 µM (inactive) | 1.06 µM (active) | 21.3 µM (inactive) | 2.02 µM (inactive) | > 100 µM (inactive) | 22.6 µM (inactive) | 26.7 µM (inactive) | 26.1 µM (inactive)
7 | ClC1(Cl)C2CCOC21n1cnc2ccccc21 (stereo unspecified) | 45 µM (inactive) | – | > 100 µM (inactive) | > 100 µM (inactive) | > 100 µM (inactive) | > 100 µM (inactive) | > 100 µM (inactive) | – | > 100 µM (inactive) | 53.8 µM (inactive) | > 100 µM (inactive) | > 100 µM (inactive) | 98.2 µM (inactive) | > 100 µM (inactive) | > 100 µM (inactive) | > 100 µM (inactive) | > 100 µM (inactive) | > 100 µM (inactive) | > 100 µM (inactive) | 92.9 µM (inactive)
8 | S=c1sscc1N1CCSc2ssc(=S)c21 | 19.9 µM (inactive) | 24.8 µM (inactive) | 88.1 µM (inactive) | > 100 µM (inactive) | 30.1 µM (inactive) | 28.4 µM (inactive) | 14.5 µM (inactive) | > 100 µM (inactive) | > 100 µM (inactive) | 29.9 µM (inactive) | > 100 µM (inactive) | 67.8 µM (inactive) | 28.4 µM (inactive) | > 100 µM (inactive) | – | > 100 µM (inactive) | > 100 µM (inactive) | 33.7 µM (inactive) | – | 67.1 µM (inactive)
9 | CC(=O)Oc1c(-c2ccccc2)oc2ccccc12 | 1.77 µM (inactive) | 3.73 µM (inactive) | 2.36 µM (inactive) | 2.43 µM (inactive) | 1.45 µM (inactive) | 2.66 µM (inactive) | 1.57 µM (inactive) | 0.678 µM (active) | 1.35 µM (inactive) | 1.61 µM (inactive) | 1.12 µM (inactive) | 2.07 µM (inactive) | 0.398 µM (active) | 0.394 µM (active) | 0.946 µM (active) | 2.5 µM (inactive) | 1.58 µM (inactive) | 4.02 µM (inactive) | 2.42 µM (inactive) | 3.13 µM (inactive)
10 | Cc1ccc(S(=O)(=O)NCCCSCCSCCCN)cc1 | > 100 µM (inactive) | > 100 µM (inactive) | > 100 µM (inactive) | > 100 µM (inactive) | > 100 µM (inactive) | > 100 µM (inactive) | > 100 µM (inactive) | > 100 µM (inactive) | > 100 µM (inactive) | > 100 µM (inactive) | > 100 µM (inactive) | > 100 µM (inactive) | > 100 µM (inactive) | > 100 µM (inactive) | > 100 µM (inactive) | > 100 µM (inactive) | > 100 µM (inactive) | – | – | –
11 | O=c1[nH]c(=O)n(C2OC(CO)C(O)C2O)cc1OCCCc1ccccc1 (stereo unspecified) | > 100 µM (inactive) | > 100 µM (inactive) | > 100 µM (inactive) | > 100 µM (inactive) | > 100 µM (inactive) | > 100 µM (inactive) | – | > 100 µM (inactive) | > 100 µM (inactive) | – | > 100 µM (inactive) | > 100 µM (inactive) | > 100 µM (inactive) | > 100 µM (inactive) | > 100 µM (inactive) | > 100 µM (inactive) | > 100 µM (inactive) | > 100 µM (inactive) | > 100 µM (inactive) | > 100 µM (inactive)
12 | Cc1ccc2nc(CN3CCCCC3)cc(=O)n2c1 | > 100 µM (inactive) | > 100 µM (inactive) | > 100 µM (inactive) | > 100 µM (inactive) | > 100 µM (inactive) | > 100 µM (inactive) | > 100 µM (inactive) | > 100 µM (inactive) | – | > 100 µM (inactive) | > 100 µM (inactive) | > 100 µM (inactive) | > 100 µM (inactive) | > 100 µM (inactive) | > 100 µM (inactive) | > 100 µM (inactive) | > 100 µM (inactive) | > 100 µM (inactive) | > 100 µM (inactive) | > 100 µM (inactive)
13 | CCOC(=O)c1c(-c2ccc(Cl)cc2)c(C#N)c(=S)n(C2OC(CO)C(O)C(O)C2O)c1-c1ccccc1 (stereo unspecified) | 30.3 µM (inactive) | 33.8 µM (inactive) | 24.2 µM (inactive) | 21.3 µM (inactive) | 31.2 µM (inactive) | 46.9 µM (inactive) | 27.9 µM (inactive) | 26.9 µM (inactive) | 15.6 µM (inactive) | 38 µM (inactive) | > 10 µM (inactive) | – | 14.6 µM (inactive) | 33.1 µM (inactive) | 20.4 µM (inactive) | 17.9 µM (inactive) | 18.1 µM (inactive) | 26.7 µM (inactive) | 20.3 µM (inactive) | 18.7 µM (inactive)
14 | CC1(C)CCCC(C)(C2CCC3(C)C2C(O)CC2C4(C)CCC(O)C(C)(C)C4CCC23C)O1 (stereo unspecified) | > 100 µM (inactive) | 86.5 µM (inactive) | 20.7 µM (inactive) | > 100 µM (inactive) | 34.5 µM (inactive) | 55 µM (inactive) | 29.4 µM (inactive) | 56.6 µM (inactive) | 47.8 µM (inactive) | > 100 µM (inactive) | 26.4 µM (inactive) | > 100 µM (inactive) | > 100 µM (inactive) | > 100 µM (inactive) | 52.1 µM (inactive) | 78.9 µM (inactive) | > 100 µM (inactive) | 75.7 µM (inactive) | – | > 100 µM (inactive)
15 | COc1ccc(Nc2cc(O)nc(O)n2)cc1 | > 100 µM (inactive) | > 100 µM (inactive) | > 100 µM (inactive) | > 100 µM (inactive) | > 100 µM (inactive) | > 100 µM (inactive) | 84.3 µM (inactive) | > 100 µM (inactive) | > 100 µM (inactive) | > 100 µM (inactive) | > 100 µM (inactive) | > 100 µM (inactive) | > 100 µM (inactive) | > 100 µM (inactive) | > 100 µM (inactive) | > 100 µM (inactive) | > 100 µM (inactive) | > 100 µM (inactive) | > 100 µM (inactive) | –
